According to patent publication US20170290774A1, “NEUROKININ-1 RECEPTOR ANTAGONIST COMPOSITION FOR TREATMENT OF DISEASES AND CONDITIONS OF THE RESPIRATORY TRACT” (PLUS VITECH, S.L., priority 2014, published 2017):

Tests used:
MMP-9 = test: Immunohistochemistry of MMP-9 in respiratory tract tissue of sodium hypochlorite aerosol-treated rabbits; type: in vivo, New Zealand albino rabbits
Description: (§1) It is known that the factors TGF-α, TGF-β 1, TGF-β 2, TGF-β 3, SPARC, MMP-3; MMP-7, MMP-9, MMP-11, MMP-13 and MMP-14, TGF-β, NF-kB, EGF, MMP-9, VEGF and TNF-α which are produced by lung cells (pneumocytes, fibroblasts and vascular endothelial cells) and inflammatory cells (macrophages, lymphocytes and polymorphonuclear leukocytes) are involved in the pathophysiology and development of said respiratory tract diseases. […] Herein, 27 New Zealand albino rabbits (New Zealand White Rabbit) with an initial average weight about 3 kg were used in this example. All subjects were administered an aerosol of a solution consisting of a mixture of water and sodium hypochlorite (35 g sodium hypochlorite per liter of water) at a rate of 5 mL of said solution by inhalation three times a day for 7 days (days 1 to 7 of experimentation). Subsequently, from days 3 to 7, a group of 3 rabbits (Group 1) was administered an oral dose of 10 mg/kg body weight per day, another group of 3 rabbits (Group 2) was administered an oral dose of 40 mg/kg body weight per day, a third group (Group 3) was administered an oral dose of 80 mg/kg body weight per day and a fourth group (Group 4) was administered an oral dose of 100 mg/kg body weight per day. […] This mixture was administered as an aerosol by inhalation, also from days 3 to 7, to a group of 3 rabbits (group 5) at a dose of 0.05 mg/kg body weight per day, to another group of three rabbits (Group 6) at a dose of 0.1 mg/kg body weight per day, to another group of three rabbits (Group 7) at a dose of 0.2 mg/kg body weight per day and to another group of three rabbits (Group 8) at a dose of 0.4 mg/kg body weight per day. A placebo consisting only of olive oil was administered from days 3 to 7 to a control group of 3 rabbits (placebo group). In parallel, 3 rabbits were kept under identical conditions but were not administered any treatment nor the aforementioned sodium hypochlorite solution (control group). […] On day 7 of the experiment all animals were euthanized and necropsied. […] Samples were taken at the peripheral level of the lung parenchyma, just below the pleural surface. Tissue samples were also taken from the nasal cavity, pharynx, larynx and bronchi. Immunohistochemistry studies were performed for all samples to evaluate the levels of the markers TGF-α, TGF-β 1, TGF-β 2, TGF-β 3 SPARC, MMP-3; MMP-7, MMP-9, MMP-11, MMP-14, TGF-β, TNF-α and VEGF. In said immunohistochemistry studies, a sample of each sample was dehydrated by treatment with increasing concentrations of ethanol and finally xylene. Subsequently said dried samples were embedded in paraffin, thus creating a block. Said paraffin blocks were cut on a microtome to a thickness of 5 μm, and the resulting sections (slices) were placed on slides suitable for conducting immunohistochemistry techniques. Subsequently, the sections were deparaffinised by immersion in xylene and then rehydrated through immersion in a series of solutions containing decreasing concentrations of ethanol and, finally, water. […] The samples were then allowed to cool to room temperature over 10 minutes. Endogenous peroxidase activity was blocked by treatment with 3% hydrogen peroxide over 30 min at room temperature. […] In order to verify the expression of NK1 receptors, the cell samples were incubated in the presence of anti-NK1 antibodies ([…], Sigma-Aldrich) diluted 1:1000 at 4° C. overnight. After this time they were washed in 0.05M Tris buffer at room temperature. Subsequently, Envision System-HRP (Dako) reagents were added for 30 min at room temperature. Once this time had expired, the samples were again washed with 0.05 M Tris buffer, and immunoreactivity was visualized by light microscopy with a chromogenic solution with 3,3'-diaminobenzidine (DAB+; Dako, USA). In order to differentiate the cell nuclei, these were lightly stained with haematoxylin. Samples that were not incubated with the primary antibody, but wherein this was replaced by a non-immune serum were used as negative controls. […]

MMP-11 = test: Immunohistochemistry of MMP-11 in respiratory tract tissue of sodium hypochlorite aerosol-treated rabbits; type: in vivo, New Zealand albino rabbits
Description: as §1

[1] = bronchial tissue, Group 1, oral 10 mg/kg per day
[2] = bronchial tissue, Group 2, oral 40 mg/kg per day
[3] = bronchial tissue, Group 3, oral 80 mg/kg per day
[4] = bronchial tissue, Group 4, oral 100 mg/kg per day
[5] = laryngeal tissue, Group 1, oral 10 mg/kg per day
[6] = laryngeal tissue, Group 2, oral 40 mg/kg per day
[7] = laryngeal tissue, Group 3, oral 80 mg/kg per day
[8] = laryngeal tissue, Group 4, oral 100 mg/kg per day
[9] = laryngeal tissue, Group 5, inhalation 0.05 mg/kg per day
[10] = laryngeal tissue, Group 6, inhalation 0.1 mg/kg per day
[11] = laryngeal tissue, Group 7, inhalation 0.2 mg/kg per day
[12] = laryngeal tissue, Group 8, inhalation 0.4 mg/kg per day
[13] = lung tissue, Group 1, oral 10 mg/kg per day
[14] = lung tissue, Group 2, oral 40 mg/kg per day
[15] = lung tissue, Group 3, oral 80 mg/kg per day
[16] = lung tissue, Group 4, oral 100 mg/kg per day
[17] = lung tissue, Group 5, inhalation 0.05 mg/kg per day
[18] = lung tissue, Group 6, inhalation 0.1 mg/kg per day
[19] = lung tissue, Group 7, inhalation 0.2 mg/kg per day
[20] = lung tissue, Group 8, inhalation 0.4 mg/kg per day
[21] = nasal cavity tissue, Group 1, oral 10 mg/kg per day
[22] = nasal cavity tissue, Group 2, oral 40 mg/kg per day
[23] = nasal cavity tissue, Group 3, oral 80 mg/kg per day
[24] = nasal cavity tissue, Group 4, oral 100 mg/kg per day
[25] = nasal cavity tissue, Group 5, inhalation 0.05 mg/kg per day
[26] = nasal cavity tissue, Group 6, inhalation 0.1 mg/kg per day
[27] = nasal cavity tissue, Group 7, inhalation 0.2 mg/kg per day
[28] = nasal cavity tissue, Group 8, inhalation 0.4 mg/kg per day
[29] = pharyngeal tissue, Group 1, oral 10 mg/kg per day
[30] = pharyngeal tissue, Group 2, oral 40 mg/kg per day
[31] = pharyngeal tissue, Group 3, oral 80 mg/kg per day
[32] = pharyngeal tissue, Group 4, oral 100 mg/kg per day
[33] = pharyngeal tissue, Group 5, inhalation 0.05 mg/kg per day
[34] = pharyngeal tissue, Group 6, inhalation 0.1 mg/kg per day
[35] = pharyngeal tissue, Group 7, inhalation 0.2 mg/kg per day
[36] = pharyngeal tissue, Group 8, inhalation 0.4 mg/kg per day

C[C@@H](OC1OCCN(Cc2nc(=O)[nH][nH]2)C1c1ccc(F)cc1)c1cc(C(F)(F)F)cc(C(F)(F)F)c1 (stereo in doubt) [Aprepitant, 5-([(2R,3S)-2-((R)-1-[3,5-bis(trifluoromethyl)phenyl]ethoxy)-3-(4-fluorophenyl)morpholino]methyl)-1H-1,2,4-triazol-3(2H)-one]
Percent increase in MMP-9 with respect to the control group (MMP-9; [1]): 749.34% | Percent increase in MMP-9 with respect to the control group (MMP-9; [2]): 672.94% | Percent increase in MMP-9 with respect to the control group (MMP-9; [3]): 495.87% | Percent increase in MMP-9 with respect to the control group (MMP-9; [4]): 305.34% | % Med G5/C: percent increase in marker MMP-9 with respect to the control group (MMP-9; bronchial tissue, Group 5): 673.45% | % Med G6/C: percent increase in marker MMP-9 with respect to the control group (MMP-9; bronchial tissue, Group 6): 452.61% | % Med G7/C: percent increase in marker MMP-9 with respect to the control group (MMP-9; bronchial tissue, Group 7): 325.54% | % Med G8/C: percent increase in marker MMP-9 with respect to the control group (MMP-9; bronchial tissue, Group 8): 153.34% | Percent increase in MMP-9 with respect to the control group (MMP-9; [5]): 1,290.89% | Percent increase in MMP-9 with respect to the control group (MMP-9; [6]): 983.98% | Percent increase in MMP-9 with respect to the control group (MMP-9; [7]): 898.18% | Percent increase in MMP-9 with respect to the control group (MMP-9; [8]): 788.78% | Percent increase in MMP-9 with respect to the control group (MMP-9; [9]): 989.34% | Percent increase in MMP-9 with respect to the control group (MMP-9; [10]): 567.37% | Percent increase in MMP-9 with respect to the control group (MMP-9; [11]): 256.47% | Percent increase in MMP-9 with respect to the control group (MMP-9; [12]): 123.23% | Percent increase in MMP-9 with respect to the control group (MMP-9; [13]): 566.19% | Percent increase in MMP-9 with respect to the control group (MMP-9; [14]): 384.44% | Percent increase in MMP-9 with respect to the control group (MMP-9; [15]): 338.57% | Percent increase in MMP-9 with respect to the control group (MMP-9; [16]): 326.02% | Percent increase in MMP-9 with respect to the control group (MMP-9; [17]): 570.94% | Percent increase in MMP-9 with respect to the control group (MMP-9; [18]): 267.29% | Percent increase in MMP-9 with respect to the control group (MMP-9; [19]): 183.98% | Percent increase in MMP-9 with respect to the control group (MMP-9; [20]): 156.83% | Percent increase in MMP-9 with respect to the control group (MMP-9; [21]): 1,355.64% | Percent increase in MMP-9 with respect to the control group (MMP-9; [22]): 768.75% | Percent increase in MMP-9 with respect to the control group (MMP-9; [23]): 511.58% | Percent increase in MMP-9 with respect to the control group (MMP-9; [24]): 328.92% | Percent increase in MMP-9 with respect to the control group (MMP-9; [25]): 1,289.77% | Percent increase in MMP-9 with respect to the control group (MMP-9; [26]): 588.48% | Percent increase in MMP-9 with respect to the control group (MMP-9; [27]): 291.36% | Percent increase in MMP-9 with respect to the control group (MMP-9; [28]): 143.08% | Percent increase in MMP-9 with respect to the control group (MMP-9; [29]): 1,102.28% | Percent increase in MMP-9 with respect to the control group (MMP-9; [30]): 945.34% | Percent increase in MMP-9 with respect to the control group (MMP-9; [31]): 789.45% | Percent increase in MMP-9 with respect to the control group (MMP-9; [32]): 561.21% | Percent increase in MMP-9 with respect to the control group (MMP-9; [33]): 998.67% | Percent increase in MMP-9 with respect to the control group (MMP-9; [34]): 505.32% | Percent increase in MMP-9 with respect to the control group (MMP-9; [35]): 212.24% | Percent increase in MMP-9 with respect to the control group (MMP-9; [36]): 121.23% | Percent increase in MMP-11 with respect to the control group (MMP-11; [1]): 784.45% | Percent increase in MMP-11 with respect to the control group (MMP-11; [2]): 673.45% | Percent increase in MMP-11 with respect to the control group (MMP-11; [3]): 563.45% | Percent increase in MMP-11 with respect to the control group (MMP-11; [4]): 453.34% | % Med G5/C: percent increase in marker MMP-11 with respect to the control group (MMP-11; bronchial tissue, Group 5): 653.23% | % Med G6/C: percent increase in marker MMP-11 with respect to the control group (MMP-11; bronchial tissue, Group 6): 438.43% | % Med G7/C: percent increase in marker MMP-11 with respect to the control group (MMP-11; bronchial tissue, Group 7): 342.56% | % Med G8/C: percent increase in marker MMP-11 with respect to the control group (MMP-11; bronchial tissue, Group 8): 159.42% | Percent increase in MMP-11 with respect to the control group (MMP-11; [5]): 789.61% | Percent increase in MMP-11 with respect to the control group (MMP-11; [6]): 576.17% | Percent increase in MMP-11 with respect to the control group (MMP-11; [7]): 456.89% | Percent increase in MMP-11 with respect to the control group (MMP-11; [8]): 324.89% | Percent increase in MMP-11 with respect to the control group (MMP-11; [9]): 768.34% | Percent increase in MMP-11 with respect to the control group (MMP-11; [10]): 504.34% | Percent increase in MMP-11 with respect to the control group (MMP-11; [11]): 203.23% | Percent increase in MMP-11 with respect to the control group (MMP-11; [12]): 167.36% | Percent increase in MMP-11 with respect to the control group (MMP-11; [13]): 522.19% | Percent increase in MMP-11 with respect to the control group (MMP-11; [14]): 416.18% | Percent increase in MMP-11 with respect to the control group (MMP-11; [15]): 339.86% | Percent increase in MMP-11 with respect to the control group (MMP-11; [16]): 251.62% | Percent increase in MMP-11 with respect to the control group (MMP-11; [17]): 520.05% | Percent increase in MMP-11 with respect to the control group (MMP-11; [18]): 222.75% | Percent increase in MMP-11 with respect to the control group (MMP-11; [19]): 169.57% | Percent increase in MMP-11 with respect to the control group (MMP-11; [20]): 128.28% | Percent increase in MMP-11 with respect to the control group (MMP-11; [21]): 1,023.73% | Percent increase in MMP-11 with respect to the control group (MMP-11; [22]): 609.60% | Percent increase in MMP-11 with respect to the control group (MMP-11; [23]): 392.70% | Percent increase in MMP-11 with respect to the control group (MMP-11; [24]): 270.95% | Percent increase in MMP-11 with respect to the control group (MMP-11; [25]): 1,215.12% | Percent increase in MMP-11 with respect to the control group (MMP-11; [26]): 489.76% | Percent increase in MMP-11 with respect to the control group (MMP-11; [27]): 266.47% | Percent increase in MMP-11 with respect to the control group (MMP-11; [28]): 133.33% | Percent increase in MMP-11 with respect to the control group (MMP-11; [29]): 1,387.65% | Percent increase in MMP-11 with respect to the control group (MMP-11; [30]): 1,980.45% | Percent increase in MMP-11 with respect to the control group (MMP-11; [31]): 980.34% | Percent increase in MMP-11 with respect to the control group (MMP-11; [32]): 670.45% | Percent increase in MMP-11 with respect to the control group (MMP-11; [33]): 1,324.23% | Percent increase in MMP-11 with respect to the control group (MMP-11; [34]): 904.21% | Percent increase in MMP-11 with respect to the control group (MMP-11; [35]): 529.34% | Percent increase in MMP-11 with respect to the control group (MMP-11; [36]): 109.43%
